{"source": "patent US9682931B2", "about": "“Aryloyl(oxy or amino)pentafluorosulfanylbenzene compound, pharmaceutically acceptable salt thereof, and prodrugs thereof” (UBE INDUSTRIES, LTD., priority 2013, dated 2017)", "tested_on": "TNF-α mRNA expression in RBL-2H3 cells", "test": "Validation test in RBL-2H3 cell: TNF-α mRNA expression by antigen stimulation (Real-time PCR)", "assay_type": "cell-based, Rat", "conditions": "10 μmol/L, untreated control as 100", "experimental": "2. Validation Test in RBL-2H3 Cell\n(Effect on Inflammation Mediator mRNA Expression by Antigen Stimulation)\nAfter a cell model for an allergic reaction, RBL-2H3 cells, were stimulated by an antigen, mRNA expression level of a typical inflammation mediator, TNF-α, in the cell was measured by a Real-time PCR method. In this manner, a confirmation test for anti-inflammatory effect of Compound 3 was performed.\nA test substance (Compound 3) (50 mg) was dissolved by adding 50 vol % ethanol (1 mL) to this to obtain an ethanol solution having a concentration of 50 mg/mL. The resultant solution was diluted with a medium. […] As a control (for comparison), Wortmannin (10 μM) was used. Herein, the concentrations were all indicated as the concentrations in cell supernatants.\nRBL-2H3 cells were sensitized with anti-DNP-IgE antibody for 2 hours. A medium or a test solution was added and heat was applied at 37° C. for 10 minutes and then, a DNP-HSA solution was added. A reaction was carried out at 37° C. for 30 minutes. After completion of the reaction, total RNA was extracted from a cell fraction and cDNA was synthesized by use of Random Primer and Reverse Transcriptase. After a specific primer for a desired gene (ITNF-α,β-actin) was added, a Real-time PCR method was carried out in accordance with SYBR Green method using the resultant cDNA as a template to determine the expression level of mRNA. The expression ratio of the desired gene relative to a housekeeping gene, β-actin, was calculated. In this manner, a change in expression level relative to an untreated control was calculated.\nMain test conditions and outline of the operation will be described below.\nCell: Rat basophil leukemic cell, RBL-2H3 [Human Sciences Foundation]\nAntigen stimulation: Anti-DNP-IgE antibody, DNP labeled albumin\n[Sigma-Aldrich Corporation]\nDesired genes: IL-4, MCP-1, TNF-α, β-actin (housekeeping gene)\nMeasurement apparatus: StepOnePlus Real-Time PCR System [Life\nTechnologies Corporation] Measurement conditions: 95° C. (20 sec)→{95° C. (3 sec)→60° C. (30 sec)}×40 cycles\nmRNA expression level (%) was obtained based on the expression level of the untreated control as 100."}
{"smiles": "COC[C@H]1OC(=O)c2coc3c2[C@@]1(C)C1=C(C3=O)[C@@H]2CCC(=O)[C@@]2(C)C[C@H]1OC(C)=O", "note": "[Wortmannin, reference compound]", "values": [{"measurement": "TNF-α mRNA expression level", "value": 45, "unit": "%"}]}
